One test has as its system NHDF cells. In words: SRB assay, relative cell proliferation rate of NHDF cells (control non-cancer cells). Format: cell-based. The source says: (§1) HeLa cells and PANC-1 cells were used as the cancer cells. Both these cells were obtained from ATCC. Further, NHDF cells obtained from Lonza Group Ltd. were used as control non-cancer cells. The culture mediums used were Dulbecco's Modified Eagle Medium (D-MEM, manufactured by FUJIFILM Wako Pure Chemical Corporation) to which 10% FBS had been added (hereinafter also referred to as the “normal medium”), a medium prepared by removing leucine from D-MEM and adding 10% FBS (hereinafter also referred to as the “Leu-removed medium”), and a medium prepared by removing valine from D-MEM and adding 10% FBS (hereinafter also referred to as the “Val-removed medium”).
(§2) The culture cells were inoculated into a 96-well culture plate at a concentration of 3×10^3 cells/well, and following adhesion, were cultured for 24, 48 or 72 hours in the normal medium, the Leu-removed medium or Val-removed medium, or a medium prepared by adding the fluorine-containing amino acid to the Leu-removed medium or Val-removed medium in an amount sufficient to achieve a final concentration of 0.8 mM. Following culturing, the cell proliferation rate was measured by SRB assay. As a control, the cell proliferation rate was measured in a similar manner for cells having a culture time of 0 hours.
(§3) The SRB assays were conducted in the following manner. Following cell culturing, the medium was removed, and 10% (wt/vol) of trichloroacetic acid was added to fix the cells. Subsequently, the fixed cells were washed three times with tap water, and then stained by adding a solution containing 0.4% (wt/vol) of sulforhodamine B dissolved in 1% acetic acid. Following subsequent washing three times with a 1% acetic acid solution, a 10 mM Tris solution was added, and the light absorbance at 540 nm was measured. The 540 nm absorbance value for each sample was used to indicate the cell quantity, and for each sample, the relative cell proliferation rate (%) at a culture time of X hours was determined using the formula below.
(§4) SRB assays were conducted in the same manner as Example 1 with the exceptions of using a medium prepared by removing glutamine from D-MEM and adding 10% FBS (hereinafter also referred to as the “Gln-removed medium”) as the culture medium instead of the Leu-removed medium, using monofluoroglutamine ((2S,4S)Gln(1F) or (2S,4R)Gln(1F)) as the fluorine-containing amino acid, and altering the amount of monofluoroglutamine added to the Gln-removed medium to an amount sufficient to achieve a final concentration of 4 mM.

For a further test, the system named is PANC-1 cells. Nature of the test: SRB assay, relative cell proliferation rate of PANC-1 cells. It counts as cell-based.
Description: as §1, §2, §3, §4
(§5) SRB assays were conducted in the same manner as Example 1 with the exceptions of using the Gln-removed medium as the culture medium instead of the Leu-removed medium, using difluoroglutamine as the fluorine-containing amino acid, and altering the amount of difluoroglutamine added to the Gln-removed medium to an amount sufficient to achieve a final concentration of 4 mM.

For test [1], the system named is HeLa cells. Nature of the test: SRB assay, relative cell proliferation rate of HeLa cells. It counts as cell-based.
Description: as §1, §2, §3, §4, §5
In general terms: The SRB assay estimates cell density from bound dye.

For test [2], the system named is HeLa cells. Nature of the test: Tumor volume of subcutaneously transplanted HeLa cells in SCID/SCID mice. Format: in vivo. The protocol:
First, 0.1 mL samples of an HeLa cell solution with a concentration of 1.0×10^7 cells/mL were transplanted beneath the skin of SCID/SCID (immunodeficient) mice. Starting 7 days after the HeLa cell transplantation, PBS (control group), leucine (5 mg/kg mouse bodyweight) or trifluoroleucine (5 mg/kg mouse bodyweight) was administered intraperitoneally every day for two weeks. The growth of the tumor tissue was observed over time from the time of HeLa transplantation, and the tumor volume (mm^3) was calculated. The tumor volume (mm^3) was calculated from the major diameter (mm) of the tumor tissue and the minor diameter (mm) of the tumor tissue using the formula shown below.
With the exceptions of using monofluoroisoleucine or 5-fluoro-5-methyl-norleucine (CAS RN: 1361228-49-0) instead of the trifluoroleucine, and starting the administration of the PBS, 5-fluoro-5-methyl-norleucine or monofluoroisoleucine 11 days after rather than 7 days after the HeLa cell transplantation, the same procedure as (1) above was used to measure the volume (mm^3) of the tumor formed by the subcutaneously transplanted HeLa cells over time.
(§6) First, 0.1 mL samples of an HeLa cell solution with a concentration of 1.0×10^7 cells/mL were transplanted beneath the skin of SCID/SCID (immunodeficient) mice. Starting 7 days after the HeLa cell transplantation, PBS (control group), glutamine (Gln) (5 mg/kg mouse bodyweight), (2S,4S)Gln(1F) (5 mg/kg mouse bodyweight) or (2S,4R)Gln(1F) (5 mg/kg mouse bodyweight) was administered intraperitoneally every day for two weeks. The growth of the tumor tissue was observed over time from the time of HeLa cell transplantation, and the tumor volume (mm^3) was calculated. The tumor volume (mm^3) was determined in the same manner as that described in Example 2.
as §6, with “mouse bodyweight), or di-F-Gln(F)” for “mouse bodyweight), (2S,4S)Gln(1F) (5 mg/kg mouse bodyweight) or (2S,4R)Gln(1F)”, “bodyweight), or di-F-Gln(F) (5 mg/kg” for “bodyweight) or (2S,4R)Gln(1F) (5 mg/kg”, “of HeLa transplantation, and” for “of HeLa cell transplantation, and”

[3] abbreviates: Val-removed medium + 0.8 mM amino acid, culture time 24 h.
[4] abbreviates: Val-removed medium + 0.8 mM amino acid, culture time 48 h.
Setting [5] is: Val-removed medium + 0.8 mM amino acid, culture time 72 h.
[6] abbreviates: Val-removed medium + 0.8 mM amino acid, culture time 72 h, listed as monofluorovaline.
[7] abbreviates: Val-removed medium + 0.8 mM amino acid, culture time 72 h, listed as hexafluorovaline.
Where [8] appears, read: 5 mg/kg intraperitoneally every day for two weeks starting day 7, 7 days since HeLa cell transplantation.
Where [9] appears, read: 5 mg/kg intraperitoneally every day for two weeks starting day 7, 14 days since HeLa cell transplantation.
Where [10] appears, read: 5 mg/kg intraperitoneally every day for two weeks starting day 7, 21 days since HeLa cell transplantation.
The mark [11] stands for this setting: Leu-removed medium + 0.8 mM amino acid, culture time 24 h.
Setting [12] is: Leu-removed medium + 0.8 mM amino acid, culture time 48 h.
Where [13] appears, read: Leu-removed medium + 0.8 mM amino acid, culture time 72 h.
[14] abbreviates: Leu-removed medium + 0.8 mM amino acid, culture time 72 h, hydrochloride.

The structures appear in SMILES notation. Where “and” joins values, the source holds several entries; their conditions need not be identical. Identical values can stand only once.

For `CC(C)(F)C(N)C(=O)O` (racemic) [Val(1F), 3-fluoro-DL-valine], the “Relative cell proliferation rate of NHDF cells” value in the test with NHDF cells (setting [3]) is reported as 91.5%; in the test with NHDF cells (setting [4]), 70.4%; in the test with NHDF cells (setting [5]), 110.5%; in the test with NHDF cells (setting [6]), “lower than the relative cell proliferation rate observed for the Val-removed medium”. The “Relative cell proliferation rate of PANC-1 cells” value in the test on PANC-1 cells (setting [3]) is recorded as 88.8%; in the test with PANC-1 cells (setting [4]) it was 103.8%; with PANC-1 cells (setting [5]) it was 105.1%; in the test with PANC-1 cells (setting [6]), “about 100%”. The “Relative cell proliferation rate of HeLa cells” value with HeLa cells [1] (setting [3]) stood at 72.83%; in the test on HeLa cells [1] (setting [4]), 118.0%; in the test on HeLa cells [1] (setting [5]), 273.6%.
Consider `NC(C(=O)O)C(C(F)(F)F)C(F)(F)F` (racemic) [Val(6F), 4,4,4,4′,4′,4′-hexafluoro-DL-valine], for which the “Relative cell proliferation rate of NHDF cells” value in the test on NHDF cells (setting [3]) was 109.8%; in the test on NHDF cells (setting [4]), 104.4%; in the test on NHDF cells (setting [5]), 125.2%; in the test with NHDF cells (setting [7]), “lower than the relative cell proliferation rate observed for the Val-removed medium”. For the same compound, the “Relative cell proliferation rate of PANC-1 cells” value with PANC-1 cells (setting [3]) amounted to 104.3%; in the test on PANC-1 cells (setting [4]) it was 133.4%; in the test with PANC-1 cells (setting [5]), 141.3%. Besides, the “Relative cell proliferation rate of HeLa cells” value is given as 88.1% in the test on HeLa cells [1] (setting [3]), 93.7% with HeLa cells [1] (setting [4]), 67.6% with HeLa cells [1] (setting [5]) and “less than 100%” with HeLa cells [1] (setting [7]).
With `CC(C)(F)CC[C@H](N)C(=O)O` [5F-NorLeu, 5-fluoro-5-methyl-norleucine], the Tumor volume in the test with HeLa cells [2] (administration intraperitoneally every day starting day 11, 11 days since HeLa cell transplantation) came out at 230.6 mm^3; in the test with HeLa cells [2] (administration intraperitoneally every day starting day 11, 13 days since HeLa cell transplantation), 373.9 mm^3; with HeLa cells [2] (administration intraperitoneally every day starting day 11, 15 days since HeLa cell transplantation), 684.9 mm^3; with HeLa cells [2] (administration intraperitoneally every day starting day 11, 18 days since HeLa cell transplantation) it was 823.5 mm^3; in the test on HeLa cells [2] (administration intraperitoneally every day starting day 11, 20 days since HeLa cell transplantation), 1291.7 mm^3; in the test on HeLa cells [2] (administration intraperitoneally every day starting day 11, 22 days since HeLa cell transplantation), 1951.5 mm^3.
As for `NC(=O)CC[C@H](N)C(=O)O` [Gln, glutamine, reference compound], the Tumor volume with HeLa cells [2] (setting [8]) was 76.0 mm^3 and 97.3 mm^3; with HeLa cells [2] (5 mg/kg intraperitoneally every day for two weeks starting day 7, 9 days since HeLa cell transplantation), 134.7 mm^3 and 259.1 mm^3; in the test on HeLa cells [2] (5 mg/kg intraperitoneally every day for two weeks starting day 7, 11 days since HeLa cell transplantation) it was 215.4 mm^3 and 341.0 mm^3; in the test on HeLa cells [2] (setting [9]), 488.0 mm^3 and 721.9 mm^3; in the test on HeLa cells [2] (5 mg/kg intraperitoneally every day for two weeks starting day 7, 16 days since HeLa cell transplantation) it was 734.1 mm^3 and 1094.6 mm^3; with HeLa cells [2] (5 mg/kg intraperitoneally every day for two weeks starting day 7, 18 days since HeLa cell transplantation), 939.6 mm^3 and 1348.3 mm^3. Moreover, the Tumor volume in the test on HeLa cells [2] (setting [10]) is 1256.0 mm^3 and 1849.5 mm^3. For the same compound, the “Increase in the size of the tumor tissue compared with the control group” value with HeLa cells [2] (HeLa tumor-bearing SCID/SCID mice, 5 mg/kg intraperitoneally every day for two weeks, result in words) is “even larger than the control group”.
Turning to `CC(C)(F)C[C@H](N)C(=O)O` [Leu(1F), 4-fluoro-L-leucine], the “Relative cell proliferation rate of NHDF cells” value in the test with NHDF cells (setting [11]) is reported as 92.0%; with NHDF cells (setting [12]) it was 66.4%; in the test with NHDF cells (setting [13]) it was 87.7%; in the test on NHDF cells (Leu-removed medium + 0.8 mM amino acid, culture time 72 h, listed as monofluoroleucine), “less than 100%”. Also, the results for the “Relative cell proliferation rate of PANC-1 cells” value in the test with PANC-1 cells (setting [11]), in the test with PANC-1 cells (setting [12]) and in the test with PANC-1 cells (setting [13]) were 67.6%, 47.9% and 40.9%, respectively. In addition, the results for the “Relative cell proliferation rate of HeLa cells” value with HeLa cells [1] (setting [11]), in the test with HeLa cells [1] (setting [12]) and with HeLa cells [1] (setting [13]) were 82.3%, 90.6% and 82.0%, respectively.
On to `Cl.NC(CC(C(F)(F)F)C(F)(F)F)C(=O)O` (stereo not drawn) [Leu(6F), 2-amino-5,5,5-trifluoro-4-(trifluoromethyl) pentanoic acid hydrochloride], for which the entries for the “Relative cell proliferation rate of NHDF cells” value with NHDF cells (setting [11]), with NHDF cells (setting [12]) and in the test on NHDF cells (setting [14]) were 104.7%, 130.1% and 179.1%, respectively. In addition, the “Relative cell proliferation rate of PANC-1 cells” value is listed as 75.5% with PANC-1 cells (setting [11]); 96.5% in the test with PANC-1 cells (setting [12]); 193.6% in the test with PANC-1 cells (setting [14]); approximately 200% in the test with PANC-1 cells (Leu-removed medium + 0.8 mM amino acid, culture time 72 h, listed as hexafluoroleucine, hydrochloride). In addition, the figures for the “Relative cell proliferation rate of HeLa cells” value in the test on HeLa cells [1] (setting [11]), in the test on HeLa cells [1] (setting [12]) and with HeLa cells [1] (setting [14]) were 137.3%, 264.0% and 472.5%, respectively.
In the case of `CC(C)C[C@H](N)C(=O)O` [Leu, leucine, reference compound], the Tumor volume in the test on HeLa cells [2] (setting [8]) is recorded as 77.4 mm^3; in the test on HeLa cells [2] (5 mg/kg intraperitoneally every day for two weeks starting day 7, 10 days since HeLa cell transplantation), 190.1 mm^3; with HeLa cells [2] (5 mg/kg intraperitoneally every day for two weeks starting day 7, 12 days since HeLa cell transplantation) it was 355.3 mm^3; in the test with HeLa cells [2] (setting [9]), 385.1 mm^3; in the test with HeLa cells [2] (5 mg/kg intraperitoneally every day for two weeks starting day 7, 17 days since HeLa cell transplantation), 714.2 mm^3; with HeLa cells [2] (5 mg/kg intraperitoneally every day for two weeks starting day 7, 19 days since HeLa cell transplantation) it was 1094.6 mm^3. Also, the Tumor volume in the test on HeLa cells [2] (setting [10]) is listed as 1536.5 mm^3.

The record behind these values is patent publication US20250312303A1, “ANTICANCER AGENT” (AGC Inc., priority 2022, published 2025).
